Reference: patent US9969758B2, “Antimicrobial compounds” (BIOMERIEUX, priority 2014, dated 2018)
≈ marks a conversion by molar mass, not a printed value.

Tests used:
Test in all cases: MIC by agar dilution, single strains
Type in all cases: cell-based
[1] = system: Salmonella typhimurium NCTC 74; conditions: Salmonella enterica, 22 hours of incubation, read-out: Minimum inhibitory concentration (MIC)
Method: (§1) Determining the minimum inhibitory concentrations (MIC). All the MICs were determined using an agar dilution method. This required use of a medium without a defined antagonist (peptone-free), prepared as described previously with the inclusion of 2% horse blood lysed with saponin, 25.0 μg/mL of NAD and 25.0 μg/mL of hemin [17]. The compounds tested were dissolved in sterile deionised water and incorporated into the agar medium in a concentration range of 0.0031 to 8.0 μg/mL (0.016 to 32 μg/mL for gram-positive bacteria). All the isolates were prepared at a density equivalent to 0.5 McFarland units in sterile deionised water using a densitometer (approximately 1.5×10^8 CFU/mL), and then diluted to 1 for 15. An aliquot of 1 μL of each diluted suspension was then placed onto plates with a multispot inoculator to give the final recommended inoculation of 10 000 CFU/spot. The MICs of fosfomycin were determined by the same method, except that the IsoSensitest medium (Oxoid, Basingstoke, United Kingdom) was used, plus 25.0 μg/mL of glucose-6-phosphate (Sigma, Poole, United Kingdom) and an extended range of fosfomycin concentrations. All the dishes (including the antimicrobial-free controls) were incubated for 22 hours at 37° C. All the tests were performed on at least two independent replicates in order to examine the reproducibility.

[2] = system: Yersinia enterocolitica NCTC 11176; conditions: NCTC11176, 22 hours of incubation, read-out: Minimum inhibitory concentration (MIC)
Method: as §1

[3] = system: Enterococcus faecalis NCTC 775; conditions: NCTC775, 22 hours of incubation, read-out: Minimum inhibitory concentration (MIC)
Method: as §1

[4] = system: Staphylococci epidermidis NCTC 11047; conditions: 22 hours of incubation, read-out: Minimum inhibitory concentration (MIC)
Method: as §1

[5] = system: Burkholderia cepacia ATCC 25416; conditions: ATCC25416, 22 hours of incubation, read-out: Minimum inhibitory concentration (MIC)
Method: as §1

[6] = system: Pseudomonas aeruginosa NCTC 10662; conditions: NCTC10662, 22 hours of incubation, read-out: Minimum inhibitory concentration (MIC)
Method: as §1

[7] = system: Enterococcus faecium NCTC 7171; conditions: NCTC7171, 22 hours of incubation, read-out: Minimum inhibitory concentration (MIC)
Method: as §1

[8] = system: Enterobacter cloacae NCTC 11936; conditions: NCTC11936, 22 hours of incubation, read-out: Minimum inhibitory concentration (MIC)
Method: as §1

[9] = system: Staphylococcus aureus NCTC 11939 (SARM); conditions: NCTC11939, 22 hours of incubation, read-out: Minimum inhibitory concentration (MIC)
Method: as §1

[10] = system: Staphylococcus aureus NCTC 6571; conditions: NCTC6571, 22 hours of incubation, read-out: Minimum inhibitory concentration (MIC)
Method: as §1

[11] = system: Escherichia coli NCTC 10418; conditions: NCTC10418, 22 hours of incubation, read-out: Minimum inhibitory concentration (MIC)
Method: as §1

[12] = system: Providencia rettgeri NCTC 7475; conditions: NCTC7475, 22 hours of incubation, read-out: Minimum inhibitory concentration (MIC)
Method: as §1

[13] = system: Listeria monocytogenes NCTC 11994; conditions: NCTC11994, 22 hours of incubation, read-out: Minimum inhibitory concentration (MIC)
Method: as §1

[14] = system: Escherichia coli NCTC 12241; conditions: NCTC12241, 22 hours of incubation, read-out: Minimum inhibitory concentration (MIC)
Method: as §1

[15] = system: Acinetobacter baumannii ATCC 19606; conditions: ATCC19606, 22 hours of incubation, read-out: Minimum inhibitory concentration (MIC)
Method: as §1

[16] = system: Serratia marcescens NCTC 10211; conditions: NCTC10211, 22 hours of incubation, read-out: Minimum inhibitory concentration (MIC)
Method: as §1

[17] = system: Salmonella enteritidis NCTC 6676; conditions: Salmonella enterica, 22 hours of incubation, read-out: Minimum inhibitory concentration (MIC)
Method: as §1

[18] = system: Klebsiella pneumoniae NCTC 9528; conditions: NCTC9528, 22 hours of incubation, read-out: Minimum inhibitory concentration (MIC)
Method: as §1

MIC [1]	MIC [2]	MIC [3]	MIC [4]	MIC [5]	MIC [6]	MIC [7]	MIC [8]	MIC [9]	MIC [10]	MIC [11]	MIC [12]	MIC [13]	MIC [14]	MIC [15]	MIC [16]	MIC [17]	MIC [18]	SMILES
> 8 µg/mL	0.125 µg/mL (≈ 0.423 µM)	0.063 µg/mL (≈ 0.213 µM)	1 µg/mL (≈ 3.39 µM)	> 8 µg/mL	> 8 µg/mL	1 µg/mL (≈ 3.39 µM)	> 8 µg/mL	> 8 µg/mL	1 µg/mL (≈ 3.39 µM)	1 µg/mL (≈ 3.39 µM)	> 8 µg/mL	> 8 µg/mL	1 µg/mL (≈ 3.39 µM)	> 8 µg/mL	0.25 µg/mL (≈ 0.847 µM)	> 8 µg/mL	0.25 µg/mL (≈ 0.847 µM)	CCC[C@H](N)C(=O)N[C@@H](C)C(=O)NC(C)P(=O)(O)O (stereo partly drawn) [compound I, L-norvalinyl-L-alanyl-D/L-fosfalin]
> 8 µg/mL	0.25 µg/mL (≈ 0.691 µM)	0.032 µg/mL (≈ 0.0884 µM)	1 µg/mL (≈ 2.76 µM)	> 8 µg/mL	> 8 µg/mL	1 µg/mL (≈ 2.76 µM)	4 µg/mL (≈ 11.1 µM)	> 8 µg/mL	2 µg/mL (≈ 5.53 µM)	0.5 µg/mL (≈ 1.38 µM)	> 8 µg/mL	> 8 µg/mL	0.5 µg/mL (≈ 1.38 µM)	> 8 µg/mL	0.25 µg/mL (≈ 0.691 µM)	> 8 µg/mL	0.5 µg/mL (≈ 1.38 µM)	CSCC[C@H](N)C(=O)N[C@@H](CCl)C(=O)NC(C)P(=O)(O)O (stereo partly drawn) [compound H, L-methionyl-β-chloro-L-alanyl-D/L-fosfalin]
